Results: patent US10407467B2, “Polymyxin derivatives and their use in combination therapy together with different antibiotics” (priority 2013, dated 2019)
Counter-ions that a name gives are not always drawn. Bridge positions count the residues as written; N and C are the ends. Square brackets hold non-standard residues; d marks the D form. Peptide text beside a SMILES is read from it. * marks the point of attachment. ξ: configuration not given here. ξHexahydromandeloyl = O=C(C(O)C1CCCCC1)*; Thr(3ξ) = CC(O)[C@H](N)C(=O)O; Dab = NCC[C@H](N)C(=O)O; Dap = NC[C@H](N)C(=O)O; X4 = NC1CCCC1C(=O)*

How the values were obtained:
Type in all cases: cell-based
[1] = test system: Acinetobacter baumannii; assay: MIC, sole activity (no second agent); details: in the absence of Rifampicin; for MIC A. baumannii ATCC13424: strain ATCC13424; for MIC A. baumannii ATCCBAA-747: strain ATCCBAA-747; for MIC A. baumannii CCUG57249: strain CCUG 57249; for MIC A. baumannii NCTC 13423: strain NCTC13423
Procedure, shortened: (§1)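 First, isolated colonies grown 18-24 hours on Mueller-Hinton agar were suspended to 0.5 McFarland; next, up to four strains per pathogen were tested in duplicate in cation-adjusted MHB; finally, the lower concordant value or modal repeat value was reported against Polymyxin B.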

[2] = test system: Escherichia coli; assay: MIC, sole activity (no second agent); details: in the absence of Rifampicin; for MIC E. coli NCTC9001: strain NCTC9001
Procedure, shortened: as §1

[3] = test system: Klebsiella pneumoniae; assay: MIC, sole activity (no second agent); details: in the absence of Rifampicin; for MIC K. pneumoniae ATCC 4352: strain ATCC 4352; for MIC K. pneumoniae ATCC-BAA2146: strain ATCC-BAA2146; for MIC K. pneumoniae CCUG-59348: strain CCUG-59348
Procedure, shortened: as §1

[4] = test system: Pseudomonas aeruginosa; assay: MIC, sole activity (no second agent); details: in the absence of Rifampicin; for MIC P. aeruginosa ATCC 27853: strain ATCC27853; for MIC P. aeruginosa ATCC-47: strain ATCC-47; for MIC P. aeruginosa ATCCCRM-9027: strain ATCCCRM-9027; for MIC P. aeruginosa CCUG 59626: strain CCUG 59626
Procedure, shortened: as §1

[5] = test system: Acinetobacter baumannii; assay: MIC, compound in combination with a second agent (broth microdilution); details: 1:1 (wt:wt) combination with Rifampicin, MIC = total drug concentration; for MIC A. baumannii CCUG57249: strain CCUG57249; for MIC A. baumannii NCTC 13423: strain NCTC 13423; for MIC A. baumannii NCTC 13424: strain NCTC 13424
Procedure, shortened: (§2)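 MIC = combined concentration of test compound plus partner agent, mixed at equal mass (1:1 w/w, salt form as used). Up to four strains per species; colonies adjusted to 0.5 McFarland. Run in duplicate; >2-fold disagreement invalidates the run.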

[6] = test system: Escherichia coli; assay: as above; details: 1:1 (wt:wt) combination with Rifampicin, MIC = total drug concentration; for MIC E. coli ATCC25922: strain ATCC25922
Procedure, shortened: as §2

[7] = test system: Klebsiella pneumoniae; assay: as above; details: 1:1 (wt:wt) combination with Rifampicin, MIC = total drug concentration; for MIC K. pneumoniae ATCC 4352: strain ATCC 4352; for MIC K. pneumoniae ATCC-BAA-2146: strain ATCC-BAA-2146; for MIC K. pneumoniae CCUG-59348: strain CCUG-59348
Procedure, shortened: as §2

[8] = test system: Pseudomonas aeruginosa; assay: as above; details: 1:1 (wt:wt) combination with Rifampicin, MIC = total drug concentration; for MIC P. aeruginosa ATCC 27853: strain ATCC 27853; for MIC P. aeruginosa ATCC CRM-9027: strain ATCC CRM-9027; for MIC P. aeruginosa ATCC-47: strain ATCC-47; for MIC P. aeruginosa CCUG 59626: strain CCUG 59626
Procedure, shortened: as §2

Row | SMILES | MIC A. baumannii ATCC13424 [1] | MIC A. baumannii ATCCBAA-747 [1] | MIC A. baumannii CCUG57249 [1] | MIC A. baumannii NCTC 13423 [1] | MIC E. coli NCTC9001 [2] | MIC K. pneumoniae ATCC 4352 [3] | MIC K. pneumoniae ATCC-BAA2146 [3] | MIC K. pneumoniae CCUG-59348 [3] | MIC P. aeruginosa ATCC 27853 [4] | MIC P. aeruginosa ATCC-47 [4] | MIC P. aeruginosa ATCCCRM-9027 [4] | MIC P. aeruginosa CCUG 59626 [4] | MIC A. baumannii CCUG57249 [5] | MIC A. baumannii NCTC 13423 [5] | MIC A. baumannii NCTC 13424 [5] | MIC E. coli ATCC25922 [6] | MIC K. pneumoniae ATCC 4352 [7] | MIC K. pneumoniae ATCC-BAA-2146 [7] | MIC K. pneumoniae CCUG-59348 [7] | MIC P. aeruginosa ATCC 27853 [8] | other results
1 | CC(C)C[C@@H]1NC(=O)[C@@H](Cc2ccccc2)NC(=O)[C@H](CCN)NC(=O)[C@@H](NC(=O)[C@H](CN)NC(=O)[C@@H](NC(=O)C2CCCC2N)C(C)O)CCNC(=O)[C@H](C(C)O)NC(=O)[C@H](CCN)NC(=O)[C@H](CCN)NC1=O (stereo partly drawn) [Example 43, [2-Amino-cyclopentane-carbonyl]-L-Thr-L-Dap-polymyxin B hepatapeptide, TFA salt] (X4-[Thr(3ξ)][Dap][Dab][Dab][dF]L[Dab][Dab][Thr(3ξ)]; lactam 3-C) | 0.25 micrograms/mL | 0.5 micrograms/mL | 0.5 micrograms/mL | 0.125 micrograms/mL | 16 micrograms/mL | 0.5 micrograms/mL | 4 micrograms/mL | >32 micrograms/mL | 0.125 micrograms/mL | 1 micrograms/mL | 0.125 micrograms/mL | ≤0.06 micrograms/mL | ≤0.06 micrograms/mL | ≤0.06 micrograms/mL | 0.125 micrograms/mL | 0.125 micrograms/mL | 0.125 micrograms/mL | 0.25 micrograms/mL | 2 micrograms/mL | 0.125 micrograms/mL | MIC E. coli ATCC25922 ([2]; strain ATCC25922): 2 micrograms/mL; MIC A. baumannii ATCC BAA-747 ([5]; strain ATCC BAA-747): 0.125 micrograms/mL; MIC E. coli NCTC9001 ([6]; strain NCTC9001): 0.125 micrograms/mL; MIC P. aeruginosa ATCC CRM-9027 [8]: 0.125 micrograms/mL; MIC P. aeruginosa ATCC-47 [8]: 0.125 micrograms/mL; MIC P. aeruginosa CCUG 59626 [8]: 0.125 micrograms/mL
2 | CC(C)C[C@@H]1NC(=O)[C@@H](Cc2ccccc2)NC(=O)[C@H](CCN)NC(=O)[C@@H](NC(=O)[C@H](CN)NC(=O)[C@@H](NC(=O)C(O)C2CCCCC2)C(C)O)CCNC(=O)[C@H](C(C)O)NC(=O)[C@H](CCN)NC(=O)[C@H](CCN)NC1=O (stereo partly drawn) [Example 45, [2-cyclohexyl-2-hydroxyethanoyl]-L-Thr-L-Dap-polymyxin B heptapeptide, TFA salt] (ξHexahydromandeloyl-[Thr(3ξ)][Dap][Dab][Dab][dF]L[Dab][Dab][Thr(3ξ)]; lactam 3-C) | 1 micrograms/mL | 2 micrograms/mL | 2 micrograms/mL | 1 micrograms/mL | 16 micrograms/mL | 0.25 micrograms/mL | 2 micrograms/mL | 32 micrograms/mL | 0.25 micrograms/mL | 1 micrograms/mL | 0.125 micrograms/mL | 0.125 micrograms/mL | 0.25 micrograms/mL | 0.125 micrograms/mL | 0.125 micrograms/mL | ≤0.06 micrograms/mL | 0.25 micrograms/mL | 0.5 micrograms/mL | 1 micrograms/mL | 0.5 micrograms/mL | MIC P. aeruginosa ATCC CRM-9027 [8]: 0.5 micrograms/mL; MIC P. aeruginosa ATCC-47 [8]: 0.25 micrograms/mL; MIC P. aeruginosa CCUG 59626 [8]: 0.25 micrograms/mL
